The numbers were not newly measured in patent publication US20090298852A1, “Pellet-form slow-release preparation for vertigo” (priority 2005, published 2009), which cites them from elsewhere.

On to `C(=C\c1ccccc1)/CN1CCN(C(c2ccccc2)c2ccccc2)CC1` [cinnarizine, 1-benzhydryl-4-trans-cinnamylpiperazine], for which the solubility in water result is recorded as “approximately 2 mg/100 ml”.
